Experimental data: PMC5721475, “Characterization of sulfhydryl oxidase from Aspergillus tubingensis” (BMC Biochemistry, 2017)

Target: T1, AtSOX (secreted sulfhydryl oxidase from Aspergillus tubingensis) (Aspergillus tubingensis, UniProt Z9JMF6K8Z8)
T1 construct: native secreted enzyme purified from culture medium; signal peptide removed; predicted N-terminus SSIPQ
T1 sequence (Z9JMF6K8Z8 20-393): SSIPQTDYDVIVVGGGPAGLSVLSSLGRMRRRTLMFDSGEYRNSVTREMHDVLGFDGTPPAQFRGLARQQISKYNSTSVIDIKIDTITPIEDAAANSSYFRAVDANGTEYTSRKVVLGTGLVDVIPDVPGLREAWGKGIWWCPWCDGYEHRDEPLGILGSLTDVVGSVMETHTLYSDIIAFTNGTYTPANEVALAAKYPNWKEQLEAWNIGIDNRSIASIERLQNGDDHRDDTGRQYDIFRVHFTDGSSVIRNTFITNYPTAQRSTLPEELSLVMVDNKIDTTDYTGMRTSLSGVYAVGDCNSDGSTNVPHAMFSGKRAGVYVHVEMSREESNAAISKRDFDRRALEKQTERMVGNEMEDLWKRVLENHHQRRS
Experiment: UV-vis and fluorescence spectra; release of flavin by thermal denaturation
Format: binding
Details: non-covalently bound, copurified; 20 mM Tris-HCl pH 7.5, 20 °C

Cc1cc2nc3c(=O)[nH]c(=O)nc-3n(C[C@H](O)[C@H](O)[C@H](O)COP(=O)(O)OP(=O)(O)OC[C@H]3O[C@@H](n4cnc5c(N)ncnc54)[C@H](O)[C@@H]3O)c2cc1C [FAD, flavin adenine dinucleotide]
UV-vis and fluorescence spectra; release of flavin by thermal denaturation: The enzyme had a non-covalently bound FAD as a cofactor
